{"source": "patent US20200246432A1", "about": "“NITRIC OXIDE- AND FAS LIGAND- ELUTING COMPOSITIONS AND DEVICES AND METHODS OF TREATMENT USING SAME” (YALE UNIVERSITY, priority 2017, published 2020)", "assay_type_in_all_cases": "cell-based", "key": {"[1]": {"system": "human aortic SMCs", "assay": "Fas receptor expression on cultured human aortic SMCs after NO donor treatment (staining)", "settings": "0.1 mM DetaNONOate, 24 hours", "protocol": "FIG. 2 is a set of images illustrating the finding that 24 hours of treatment with 0.1 mM DetaNONOate (NO donor) increased Fas receptors on the surface of human aortic SMCs dramatically. Blue=DAPI nuclei, red=Fas receptor. Scale bar: 50 μm.\nBoth local delivery of FasL, and increasing the Fas receptors on the surface of the target cells, can increase the efficiency of FasL-mediated apoptosis. Nitric oxide (NO) is known to increase surface Fas receptors on vascular SMCs (Fukuo et al., Hypertension, 1996. 27(3 Pt 2): p. 823-6; Boyle, Weissberg, and Bennett, Arterioscler Thromb Vasc Biol, 2002. 22(10): p. 1624-30). […] After 24 hours of treatment with DetaNONOate, Fas receptor expression on SMCs was increased (red stain, FIG. 2, right panel)."}, "[2]": {"system": "human aortic SMCs", "assay": "SMC apoptosis/killing, TUNEL staining, human aortic SMCs", "settings": "DetaNONOate alone, up to 0.2 mM", "protocol": "(§1) FIG. 3 is a set of graphs illustrating the finding that 48 hours of treatment with varying concentrations of human FasL and DetaNONOate (NO donor) increased apoptosis in human (left panel) and pig (right panel) aortic SMCs in a synergistic way.\n(§2) Addition of FasL and NO donor DetaNONOate increased human and pig aortic SMC apoptosis in a synergistic fashion (FIG. 3). DetaNONOate alone, up to 0.2 mM concentration, led to minimal (<15%) death of human or porcine SMCs."}, "[3]": {"system": "pig aortic SMCs", "assay": "SMC apoptosis/killing, TUNEL staining, pig aortic SMCs", "settings": "DetaNONOate alone, up to 0.2 mM", "protocol": "as §1, §2"}, "[4]": {"system": "human umbilical vein endothelial cell (HUVEC)", "assay": "EC viability: HUVEC cell number, apoptosis, proliferation", "protocol": "Next, the effect of FasL and NO donor combinations on EC viability was tested."}}}
{"smiles": "NCCN(CCN)N(O)N=O", "note": "[DetaNONOate, 2,2′-(2-Hydroxy-2-nitrosohydrazinylidene)bis-ethanamine]", "values": [{"measurement": "Fas receptor expression on SMCs", "setting": "[1]", "result": "increased"}, {"measurement": "death of human SMCs", "setting": "[2]", "result": "< 15", "unit": "%"}, {"measurement": "death of porcine SMCs", "setting": "[3]", "result": "< 15", "unit": "%"}, {"measurement": "EC viability", "setting": "[4]; DetaNONOate 0.2 mM", "result": "negatively affected EC viability"}, {"measurement": "HUVEC cell number, rates of apoptosis or proliferation", "setting": "[4]; DetaNONOate alone 0.1 mM, absence of FasL, 96 hours", "result": "did not affect"}]}
